Legend:
[1] = test system: DLD-1 cells; experiment: Soft agar assay, colony growth; type: cell-based, human; conditions: highest concentration tested (range 10 μM to 75 μM), one dose, stained 20 days later, FIG. 1
Procedure: The Example 1 and 24 compounds were compared to the COX-2 inhibitor celecoxib in inhibiting the growth of DLD-1 cells in soft agar. DLD-1 cells are human colorectal carcinoma cells that overexpress COX-2. DLD-1 cells grow in soft agar and form tumors in nude mice. The soft agar assay was performed as follows. A layer of bottom agar ([…]) was placed onto 60 mm^2 tissue culture dishes. The tumor cells were trypsinized from normal growth flasks while in exponential growth. The cells were counted by using a hemacytometer and 1.0×10^5 cells were placed into the top agar mixture containing growth medium, 4% noble agar and various concentrations of drugs. The concentration range was normally between 10 μM to 75 μM. The cells were not refed during the assay system; therefore, the cells were treated with one dose of the agents. The plates were stained 20 days later with a 0.05% (w/v) nitroblue tetrazolium solution (which stains only viable cells) for 48 hours. The results are shown in FIG. 1, the y-axis being the percent of cell colonies remaining in comparison to untreated control cells.

[2] = Cyclooxygenase enzyme assay (TLC method), COX-1; type: biochemical, ovine; conditions: second column headed COX-2; preincubation 90-120 min, [1-14C] arachidonic acid 50 μM; read-out: Inhibition of Cyclooxygenase Activity IC50 COX-2
Procedure: Cyclooxygenase activity of ovine COX-1 (Oxford Biomedical Research Inc.) and human recombinant COX-2 (Oxford Biomedical Research Inc.) was assayed by a thin layer chromatography (TLC) method as follows. All inhibitors were dissolved in dimethyl sulfoxide to a stock solution of 5mM. Human recombinant COX-2 (3 units) or ovine COX-1 (15 units) was incubated with inhibitors at several concentrations in a solution containing 100 mM Tris-HCl, pH7.8, 500 μM phenol and hematin for 90 to 120 minutes at room temperature (24° C.). In controls, equal volumes of DMSO without drug were added to the incubation mixture. After incubation for 90-120 minutes, [1-^14C] arachidonic acid (50 μM, 51 mCi/mmol) (DuPont NEN) was added and incubated at 37° C. for 2 minutes. The reaction was terminated by extraction with 1 ml of ethyl acetate. The ethyl acetate layer was transferred into a fresh tube and evaporated to dryness in a Speedvac vacuum dryer. The contents of the tubes were reconstituted in […] of ethyl acetate and spotted on a TLC plate (J. T. Baker, Philipsburg, N.J.) and developed in a mobile phase containing chloroform/methanol (95:5) at 4° C. Radiolabeled prostanoid compounds (the products of COX enzymatic reaction with radiolabeled arachidonic acid substrate) were quantitated with a radioactivity scanner (Fuji, Phosphorimager). […]

IC50 [2] [µM] | SMILES | inhibition of DLD-1 cell colony growth in soft agar [1] [%]
< 100 | NS(=O)(=O)c1ccc(N2N=C(C(F)(F)F)CC2c2ccccc2)cc1 (stereo not shown) [Example 1, 1-(4-Sulfamylphenyl)-3-trifluoromethyl-5-phenyl-2-pyrazoline] | 100
< 100 | NS(=O)(=O)c1ccc(N2N=C(C(F)(F)F)CC2c2c[nH]c3ccccc23)cc1 (stereo not shown) [Example 24, 1-(4-Sulfamylphenyl)-3-trifluoromethyl-5-(3-indolyl)-2-pyrazoline] | 100

Source: USRE39681E1, “1-(4-sulfamyaryl)-3-substituted-5-aryl-2-pyrazolines and inhibitors of cyclooxygenase-2” (Temple University - of the Commonwealth System of Higher …, priority 1999, dated 2007)
